Source: ChEMBL document CHEMBL1201862, “PubChem BioAssay data set” (2004)
Where “and” joins values, the source holds several entries; their conditions need not be identical. Equal values may be shown once. Calls of active or inactive are those of the source.

Tests used:
[1] = molecular target: Serine/threonine-protein phosphatase PP1-alpha catalytic subunit (Homo sapiens, UniProt P62136); test: inhibition of protein phosphatase 1 activity – biochemical, fluorescence, dose response (AID 2403);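 also: phosphatase turnover of OMFP into fluorescent 3-O-methylfluorescein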
[2] = molecular target: T1, Serine/threonine-protein phosphatase (Homo sapiens, UniProt Q9BPW0); test: Counterscreen for inhibitors of PP1: fluorescence-based biochemical high throughput dose response assay to identify inhibitors of Protein Phosphatase 5 (PP5). [Related pubchem assays: 2034 (Summary (PP5 inhibitors)), 1987 (PP5 inhibitors in singlate), 2235 (PP1 inhibitors in singlate)]
T1 sequence (Q9BPW0 whole entry): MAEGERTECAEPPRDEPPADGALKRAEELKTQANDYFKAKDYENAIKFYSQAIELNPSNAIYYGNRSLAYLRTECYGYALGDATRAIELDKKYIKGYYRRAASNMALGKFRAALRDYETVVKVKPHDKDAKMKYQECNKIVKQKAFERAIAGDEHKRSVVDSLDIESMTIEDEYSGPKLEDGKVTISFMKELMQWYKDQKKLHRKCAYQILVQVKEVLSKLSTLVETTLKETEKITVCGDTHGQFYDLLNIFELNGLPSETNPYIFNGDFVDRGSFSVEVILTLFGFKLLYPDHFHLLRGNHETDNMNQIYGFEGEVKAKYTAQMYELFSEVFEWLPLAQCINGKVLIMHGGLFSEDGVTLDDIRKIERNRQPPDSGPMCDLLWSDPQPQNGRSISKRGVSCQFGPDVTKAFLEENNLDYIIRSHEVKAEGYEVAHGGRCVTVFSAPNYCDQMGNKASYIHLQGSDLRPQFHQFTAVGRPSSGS

[3] = test system: INS1; test: INS-1E survival protection against cytokine death – cell-based, luminescence, retest, dose response (AID 449756); format: functional; details: Rattus norvegicus;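 also: cell death triggered by IL-1 beta plus TNF-alpha plus IFN-gamma mixture; protective hits raise ATP signal compared with cytokine alone wells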
[4] = Counterscreen for IDE inhibitors: Luminescence-based cell-based high throughput dose response assay to identify compounds that are cytotoxic to HEK cells. [Related pubchem assays: 434962 (Primary screen (IDE inhibitors in singlicate)), 449730 (Counterscreen (Cytotoxicity in triplicate)), 435028 (Confirmation (IDE inhibitors in triplicate)) …; format: functional; details: HEK293
[5] = molecular target: T2, Insulin-degrading enzyme (Homo sapiens, UniProt P14735); test: Dose Response: Fluorescence polarization-based cell-based high throughput dose response assay for inhibitors of insulin-degrading enzyme (IDE). [Related pubchem assays: 434962 (Primary screen (IDE inhibitors in singlicate)), 449730 (Counterscreen (Cytotoxicity in triplicate)), 435028 (Confirmation (IDE inhibitors in triplicate)), 434984 (Summary …; format: functional
T2 sequence (P14735 whole entry): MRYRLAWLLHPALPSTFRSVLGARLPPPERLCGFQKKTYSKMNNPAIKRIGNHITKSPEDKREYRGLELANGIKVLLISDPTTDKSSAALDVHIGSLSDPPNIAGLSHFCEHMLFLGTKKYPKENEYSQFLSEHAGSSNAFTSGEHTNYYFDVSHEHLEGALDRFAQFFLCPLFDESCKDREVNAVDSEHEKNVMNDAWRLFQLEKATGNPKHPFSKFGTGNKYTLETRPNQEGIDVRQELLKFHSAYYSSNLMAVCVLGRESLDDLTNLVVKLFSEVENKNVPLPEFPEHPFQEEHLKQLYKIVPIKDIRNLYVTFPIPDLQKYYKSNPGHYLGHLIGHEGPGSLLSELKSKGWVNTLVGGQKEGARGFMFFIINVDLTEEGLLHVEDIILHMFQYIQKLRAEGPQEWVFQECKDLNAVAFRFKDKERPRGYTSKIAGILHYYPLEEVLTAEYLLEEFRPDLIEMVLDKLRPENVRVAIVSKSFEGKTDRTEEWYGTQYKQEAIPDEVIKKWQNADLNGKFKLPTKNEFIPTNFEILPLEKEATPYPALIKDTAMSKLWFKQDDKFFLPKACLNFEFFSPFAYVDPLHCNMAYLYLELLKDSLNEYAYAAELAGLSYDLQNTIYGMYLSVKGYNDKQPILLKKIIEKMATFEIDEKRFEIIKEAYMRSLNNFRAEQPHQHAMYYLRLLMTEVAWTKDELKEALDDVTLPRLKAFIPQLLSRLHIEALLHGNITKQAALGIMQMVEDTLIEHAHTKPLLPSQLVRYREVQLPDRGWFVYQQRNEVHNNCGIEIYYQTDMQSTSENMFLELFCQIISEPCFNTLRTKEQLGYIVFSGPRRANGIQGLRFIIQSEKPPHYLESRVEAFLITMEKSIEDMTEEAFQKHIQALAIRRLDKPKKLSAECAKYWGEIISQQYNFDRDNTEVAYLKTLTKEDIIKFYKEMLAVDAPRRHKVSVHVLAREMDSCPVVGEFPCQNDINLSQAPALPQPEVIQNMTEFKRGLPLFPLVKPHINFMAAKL

[6] = molecular target: T3, Replicative DNA helicase DnaB (Mycobacterium tuberculosis, UniProt P9WMR3); test: DnaB intein splicing inhibitors, dose response, biochemical, cell-free fluorescence (AID 449749); format: functional
T3 sequence (P9WMR3 whole entry): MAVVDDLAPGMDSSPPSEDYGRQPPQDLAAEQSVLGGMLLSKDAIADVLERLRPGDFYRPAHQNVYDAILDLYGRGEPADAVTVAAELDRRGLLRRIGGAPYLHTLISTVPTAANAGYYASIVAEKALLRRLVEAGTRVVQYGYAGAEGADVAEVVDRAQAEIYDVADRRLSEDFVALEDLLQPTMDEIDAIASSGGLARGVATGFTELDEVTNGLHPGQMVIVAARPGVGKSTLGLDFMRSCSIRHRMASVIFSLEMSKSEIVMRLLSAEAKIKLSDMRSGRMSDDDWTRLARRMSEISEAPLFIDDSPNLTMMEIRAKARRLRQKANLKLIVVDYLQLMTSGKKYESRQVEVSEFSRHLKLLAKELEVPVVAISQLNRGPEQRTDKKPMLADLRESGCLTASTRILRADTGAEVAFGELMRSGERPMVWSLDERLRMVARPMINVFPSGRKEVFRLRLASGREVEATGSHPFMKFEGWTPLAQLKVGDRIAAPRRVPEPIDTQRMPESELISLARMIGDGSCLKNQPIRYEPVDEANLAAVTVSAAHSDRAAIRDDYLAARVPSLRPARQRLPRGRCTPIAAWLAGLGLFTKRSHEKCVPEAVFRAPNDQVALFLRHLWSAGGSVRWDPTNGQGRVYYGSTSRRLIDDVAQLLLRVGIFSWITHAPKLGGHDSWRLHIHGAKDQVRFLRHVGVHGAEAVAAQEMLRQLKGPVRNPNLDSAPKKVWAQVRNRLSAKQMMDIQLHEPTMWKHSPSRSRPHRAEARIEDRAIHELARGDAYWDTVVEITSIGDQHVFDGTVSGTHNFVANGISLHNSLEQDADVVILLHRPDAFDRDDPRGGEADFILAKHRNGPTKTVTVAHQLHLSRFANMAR

[7] = molecular target: T4, Voltage-gated N-type calcium channel alpha-1B subunit/Amyloid beta A4 precursor protein-binding family A member 1 (Homo sapiens, UniProt Q00975+Q02410); format: protein assay
[8] = molecular target: Eukaryotic translation initiation factor 4E (Mus musculus, UniProt P63073); test: blockers of eIF4G binding by eIF4E – biochemical, TR-FRET, dose response (AID 855); format: functional;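 also: potency for disrupting eIF4E binding to eIF4GI seen as loss of FRET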
[9] = molecular target: Nonstructural protein 1 (Influenza A virus, UniProt Q194T2); format: functional, Influenza A virus (A/California/07/2009(H1N1))
[10] = molecular target: T5, Leucine aminopeptidase (Plasmodium falciparum 3D7, UniProt Q8IL11); test: P. falciparum M17LAP inhibitors, primary screen, biochemical, fluorogenic H-Leu-NHMec substrate, 1536-well (AID 1619); format: functional
T5 sequence (Q8IL11 whole entry): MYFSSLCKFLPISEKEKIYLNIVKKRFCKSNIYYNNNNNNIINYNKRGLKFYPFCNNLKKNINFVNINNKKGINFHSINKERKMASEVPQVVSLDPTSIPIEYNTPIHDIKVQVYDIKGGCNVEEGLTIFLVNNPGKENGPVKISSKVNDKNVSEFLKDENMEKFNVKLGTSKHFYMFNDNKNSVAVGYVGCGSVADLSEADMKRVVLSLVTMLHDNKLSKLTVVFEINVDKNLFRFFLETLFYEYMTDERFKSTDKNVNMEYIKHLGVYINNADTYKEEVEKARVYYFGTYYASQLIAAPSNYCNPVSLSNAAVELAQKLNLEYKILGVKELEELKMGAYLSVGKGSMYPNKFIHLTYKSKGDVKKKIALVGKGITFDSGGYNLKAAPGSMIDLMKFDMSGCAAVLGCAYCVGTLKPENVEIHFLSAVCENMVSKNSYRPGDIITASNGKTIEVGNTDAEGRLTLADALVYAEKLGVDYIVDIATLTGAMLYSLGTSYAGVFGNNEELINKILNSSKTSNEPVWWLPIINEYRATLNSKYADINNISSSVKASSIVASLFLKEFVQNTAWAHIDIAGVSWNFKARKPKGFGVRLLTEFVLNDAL

[11] = molecular target: Induced myeloid leukemia cell differentiation protein Mcl-1 (Homo sapiens, UniProt Q07820); format: functional
[12] = CCR5-tropic HIV-1 fusion blockers – cell-based, CCR5-tropic Env, dose response (AID 2279); format: functional
[13] = molecular target: T6, Beta-galactosidase (Escherichia coli, UniProt Q8VNN2); test: detection-enzyme interference by beta-gal modulators – biochemical, E. coli enzyme, set 3, artefact control for CCR6 antagonist project, dose response (AID 504712); format: functional
[14] = molecular target: G-protein coupled receptor 55 (Homo sapiens, UniProt Q9Y2T6); test: inhibition of LPI-stimulated GPR55 beta-arrestin translocation – imaging, U2OS, beta-arrestin-GFP, LPI agonist, primary screen (AID 2013); format: functional;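 also: antagonist potency measured as reduced agonist-driven arrestin aggregation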
[15] = molecular target: T7, Protein RecA (Mycobacterium tuberculosis, UniProt P9WHJ3); test: Fluorescence Cell-Free Homogeneous Dose Retest to Identify Inhibitors of RecA-Intein Splicing Activity. [Related pubchem assays (depositor defined):AID2097, AID2223, AID489010, AID492950]; format: functional
T7 sequence (P9WHJ3 whole entry): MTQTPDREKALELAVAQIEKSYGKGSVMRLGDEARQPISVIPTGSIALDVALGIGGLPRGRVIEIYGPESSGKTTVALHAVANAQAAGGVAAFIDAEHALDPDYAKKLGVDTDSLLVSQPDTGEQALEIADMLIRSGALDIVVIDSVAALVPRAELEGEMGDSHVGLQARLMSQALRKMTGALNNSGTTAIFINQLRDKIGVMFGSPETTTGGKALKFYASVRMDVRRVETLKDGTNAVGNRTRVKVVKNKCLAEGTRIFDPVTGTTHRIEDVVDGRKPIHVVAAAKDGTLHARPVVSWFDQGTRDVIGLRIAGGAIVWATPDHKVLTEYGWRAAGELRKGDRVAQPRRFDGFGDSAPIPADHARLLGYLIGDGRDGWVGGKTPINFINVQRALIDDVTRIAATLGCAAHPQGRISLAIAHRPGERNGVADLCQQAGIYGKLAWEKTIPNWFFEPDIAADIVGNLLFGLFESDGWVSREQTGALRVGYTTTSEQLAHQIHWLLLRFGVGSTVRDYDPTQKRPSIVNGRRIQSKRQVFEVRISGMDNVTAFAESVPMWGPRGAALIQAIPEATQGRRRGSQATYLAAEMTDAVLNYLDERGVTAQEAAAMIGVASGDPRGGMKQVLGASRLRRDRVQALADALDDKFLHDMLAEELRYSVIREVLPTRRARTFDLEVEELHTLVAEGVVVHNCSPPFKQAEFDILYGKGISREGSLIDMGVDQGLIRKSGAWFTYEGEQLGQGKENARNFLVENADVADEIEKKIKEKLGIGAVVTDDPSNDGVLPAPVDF

[16] = molecular target: T4, Voltage-gated N-type calcium channel alpha-1B subunit/Amyloid beta A4 precursor protein-binding family A member 1; format: protein assay; remark: listed apart in the source
[17] = microbe, parasite or virus in culture; format: functional; details: Mycobacterium tuberculosis
[18] = molecular target: T6, Beta-galactosidase; test: PubChem AID 485352; format: functional
[19] = mitochondrial function rescue without frataxin homolog – Friedreich's ataxia, plus single-dose screen, dose response (AID 1465); format: functional;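 also: yeast depleted of Yfh1p frataxin homolog grown on glycerol needing respiration; WST-1 tetrazolium dye reduction as measure of cellular dehydrogenase metabolic activity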
[20] = molecular target: T8, Type-1 angiotensin II receptor (Homo sapiens, UniProt P30556); test: antagonism of angiotensin II type 1 receptor – cell-based, uHTS hits, selectivity assay for APJ receptor antagonist project, dose response (AID 463214); format: functional;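 also: antagonist potency against angiotensin II stimulated AT1 response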
T8 sequence (P30556 whole entry): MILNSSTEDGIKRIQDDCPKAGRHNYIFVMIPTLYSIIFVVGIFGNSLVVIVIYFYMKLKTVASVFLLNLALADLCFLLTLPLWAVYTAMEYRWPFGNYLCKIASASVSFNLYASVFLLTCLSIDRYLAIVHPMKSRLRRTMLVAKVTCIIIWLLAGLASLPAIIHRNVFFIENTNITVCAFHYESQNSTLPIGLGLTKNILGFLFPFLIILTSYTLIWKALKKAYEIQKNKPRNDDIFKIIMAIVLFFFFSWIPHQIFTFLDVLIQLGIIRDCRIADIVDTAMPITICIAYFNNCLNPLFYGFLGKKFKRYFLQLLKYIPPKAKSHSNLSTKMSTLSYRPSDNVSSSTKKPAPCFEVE

Chain of Eukaryotic translation initiation factor 4E (P63073 whole entry): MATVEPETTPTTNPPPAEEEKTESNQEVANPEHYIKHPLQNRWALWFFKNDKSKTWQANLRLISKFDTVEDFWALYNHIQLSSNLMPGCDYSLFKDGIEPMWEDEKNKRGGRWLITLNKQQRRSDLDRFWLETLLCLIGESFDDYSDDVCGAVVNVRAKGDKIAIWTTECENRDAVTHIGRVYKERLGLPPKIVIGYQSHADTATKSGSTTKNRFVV
T4 sequence (Q00975 whole entry): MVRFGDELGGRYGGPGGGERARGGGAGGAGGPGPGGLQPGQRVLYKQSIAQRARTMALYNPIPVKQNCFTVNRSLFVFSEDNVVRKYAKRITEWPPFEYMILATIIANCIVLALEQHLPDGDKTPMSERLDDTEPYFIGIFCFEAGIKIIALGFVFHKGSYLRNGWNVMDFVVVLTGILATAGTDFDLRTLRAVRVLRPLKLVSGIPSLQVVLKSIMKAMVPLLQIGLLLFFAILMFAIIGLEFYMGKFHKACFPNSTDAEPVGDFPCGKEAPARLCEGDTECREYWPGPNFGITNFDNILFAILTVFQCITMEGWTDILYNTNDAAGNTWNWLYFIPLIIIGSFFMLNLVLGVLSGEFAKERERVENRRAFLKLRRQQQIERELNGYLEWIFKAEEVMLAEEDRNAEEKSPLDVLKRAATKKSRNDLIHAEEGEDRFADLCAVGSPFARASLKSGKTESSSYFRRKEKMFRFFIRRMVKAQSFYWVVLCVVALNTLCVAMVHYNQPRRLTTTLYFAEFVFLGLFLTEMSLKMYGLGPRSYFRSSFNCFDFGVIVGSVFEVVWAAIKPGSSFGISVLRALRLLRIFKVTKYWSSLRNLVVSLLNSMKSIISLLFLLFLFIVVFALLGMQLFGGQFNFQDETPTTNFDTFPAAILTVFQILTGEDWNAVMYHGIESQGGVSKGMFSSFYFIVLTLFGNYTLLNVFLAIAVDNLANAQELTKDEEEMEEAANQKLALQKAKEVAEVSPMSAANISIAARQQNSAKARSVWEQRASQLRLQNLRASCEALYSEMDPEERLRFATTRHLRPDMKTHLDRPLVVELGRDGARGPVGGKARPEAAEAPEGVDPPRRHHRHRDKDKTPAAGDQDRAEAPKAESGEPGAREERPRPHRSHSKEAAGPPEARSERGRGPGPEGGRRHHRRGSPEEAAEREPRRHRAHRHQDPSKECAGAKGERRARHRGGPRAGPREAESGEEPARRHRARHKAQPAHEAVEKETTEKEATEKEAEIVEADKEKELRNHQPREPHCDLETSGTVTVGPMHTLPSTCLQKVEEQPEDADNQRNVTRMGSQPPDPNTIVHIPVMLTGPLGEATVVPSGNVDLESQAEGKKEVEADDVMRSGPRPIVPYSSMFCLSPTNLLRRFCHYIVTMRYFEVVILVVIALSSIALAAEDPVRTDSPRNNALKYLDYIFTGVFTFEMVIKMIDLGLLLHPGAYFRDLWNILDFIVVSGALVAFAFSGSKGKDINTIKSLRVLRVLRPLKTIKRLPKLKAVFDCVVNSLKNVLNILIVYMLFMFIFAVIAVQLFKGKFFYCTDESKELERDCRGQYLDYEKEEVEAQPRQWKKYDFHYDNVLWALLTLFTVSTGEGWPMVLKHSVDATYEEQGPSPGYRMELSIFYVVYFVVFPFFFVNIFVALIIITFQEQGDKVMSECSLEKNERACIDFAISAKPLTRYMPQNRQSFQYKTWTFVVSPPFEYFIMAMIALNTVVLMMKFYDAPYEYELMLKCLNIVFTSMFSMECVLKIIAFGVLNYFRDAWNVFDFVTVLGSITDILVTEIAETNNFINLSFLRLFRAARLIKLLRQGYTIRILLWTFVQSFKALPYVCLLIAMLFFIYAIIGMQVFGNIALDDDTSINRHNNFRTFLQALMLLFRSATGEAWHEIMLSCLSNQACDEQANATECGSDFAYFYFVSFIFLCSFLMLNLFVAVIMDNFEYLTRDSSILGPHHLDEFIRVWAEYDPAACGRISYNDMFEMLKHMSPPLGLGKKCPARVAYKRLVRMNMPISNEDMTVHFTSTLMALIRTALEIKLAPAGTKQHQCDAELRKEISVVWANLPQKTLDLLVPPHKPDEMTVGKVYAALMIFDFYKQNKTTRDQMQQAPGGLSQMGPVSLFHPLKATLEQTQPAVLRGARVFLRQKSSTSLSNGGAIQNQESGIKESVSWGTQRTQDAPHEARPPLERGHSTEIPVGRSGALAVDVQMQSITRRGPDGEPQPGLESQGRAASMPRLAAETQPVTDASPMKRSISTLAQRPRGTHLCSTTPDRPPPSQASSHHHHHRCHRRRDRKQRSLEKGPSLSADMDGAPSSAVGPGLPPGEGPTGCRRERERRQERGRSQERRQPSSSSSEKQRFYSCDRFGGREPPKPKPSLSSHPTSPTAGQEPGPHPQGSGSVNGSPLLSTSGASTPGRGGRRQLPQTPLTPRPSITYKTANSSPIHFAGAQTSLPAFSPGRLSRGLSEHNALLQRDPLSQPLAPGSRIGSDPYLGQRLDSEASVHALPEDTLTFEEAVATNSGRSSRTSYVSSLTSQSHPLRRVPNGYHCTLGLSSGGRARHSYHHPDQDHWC
T4 sequence (Q02410 whole entry): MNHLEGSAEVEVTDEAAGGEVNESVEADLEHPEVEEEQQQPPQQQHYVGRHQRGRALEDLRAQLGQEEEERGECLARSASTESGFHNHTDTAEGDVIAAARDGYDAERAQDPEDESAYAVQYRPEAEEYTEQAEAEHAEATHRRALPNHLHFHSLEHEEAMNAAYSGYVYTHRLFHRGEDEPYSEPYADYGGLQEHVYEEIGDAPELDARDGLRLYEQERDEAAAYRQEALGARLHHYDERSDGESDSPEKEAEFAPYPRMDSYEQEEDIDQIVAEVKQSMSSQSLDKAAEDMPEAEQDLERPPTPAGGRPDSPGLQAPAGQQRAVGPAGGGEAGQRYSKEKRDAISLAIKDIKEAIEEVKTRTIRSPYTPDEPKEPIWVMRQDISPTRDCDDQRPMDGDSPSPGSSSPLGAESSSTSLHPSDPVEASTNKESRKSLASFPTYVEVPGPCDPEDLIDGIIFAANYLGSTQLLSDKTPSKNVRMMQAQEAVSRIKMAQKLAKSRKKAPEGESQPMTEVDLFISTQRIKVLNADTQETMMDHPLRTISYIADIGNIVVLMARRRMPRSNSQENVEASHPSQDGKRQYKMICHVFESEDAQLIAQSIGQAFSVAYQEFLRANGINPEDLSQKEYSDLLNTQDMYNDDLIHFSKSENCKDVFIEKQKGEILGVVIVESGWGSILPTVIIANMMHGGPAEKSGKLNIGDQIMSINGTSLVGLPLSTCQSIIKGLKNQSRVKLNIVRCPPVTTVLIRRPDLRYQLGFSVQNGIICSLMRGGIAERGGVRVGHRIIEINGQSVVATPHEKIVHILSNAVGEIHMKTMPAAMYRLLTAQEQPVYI
T6 sequence (Q8VNN2 whole entry): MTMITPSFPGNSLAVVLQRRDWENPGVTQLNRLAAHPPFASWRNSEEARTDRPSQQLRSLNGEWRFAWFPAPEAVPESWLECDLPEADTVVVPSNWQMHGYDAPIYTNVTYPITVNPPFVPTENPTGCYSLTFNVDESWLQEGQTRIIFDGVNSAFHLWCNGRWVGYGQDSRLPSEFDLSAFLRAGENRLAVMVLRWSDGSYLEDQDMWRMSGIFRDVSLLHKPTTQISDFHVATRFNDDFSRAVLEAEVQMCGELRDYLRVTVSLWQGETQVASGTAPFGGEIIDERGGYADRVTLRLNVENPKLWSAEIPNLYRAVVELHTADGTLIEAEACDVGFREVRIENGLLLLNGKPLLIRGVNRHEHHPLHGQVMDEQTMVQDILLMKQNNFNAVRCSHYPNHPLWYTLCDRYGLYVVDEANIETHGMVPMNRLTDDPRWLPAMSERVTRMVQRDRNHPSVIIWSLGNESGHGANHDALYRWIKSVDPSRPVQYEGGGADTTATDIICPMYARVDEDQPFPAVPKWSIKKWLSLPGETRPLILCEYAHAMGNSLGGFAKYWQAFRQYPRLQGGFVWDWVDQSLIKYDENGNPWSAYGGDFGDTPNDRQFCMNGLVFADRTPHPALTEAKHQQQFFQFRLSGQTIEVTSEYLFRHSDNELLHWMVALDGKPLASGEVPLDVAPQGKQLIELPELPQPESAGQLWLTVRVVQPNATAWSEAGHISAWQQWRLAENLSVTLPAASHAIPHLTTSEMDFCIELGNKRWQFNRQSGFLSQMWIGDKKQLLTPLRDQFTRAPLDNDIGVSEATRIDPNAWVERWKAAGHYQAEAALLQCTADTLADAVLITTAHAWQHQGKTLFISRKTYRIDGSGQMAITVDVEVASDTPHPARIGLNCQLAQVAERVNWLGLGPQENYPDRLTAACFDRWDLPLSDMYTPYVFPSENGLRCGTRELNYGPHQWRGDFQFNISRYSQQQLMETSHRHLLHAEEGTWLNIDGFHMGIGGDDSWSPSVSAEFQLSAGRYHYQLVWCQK
Chain of Nonstructural protein 1 (Q194T2 whole entry): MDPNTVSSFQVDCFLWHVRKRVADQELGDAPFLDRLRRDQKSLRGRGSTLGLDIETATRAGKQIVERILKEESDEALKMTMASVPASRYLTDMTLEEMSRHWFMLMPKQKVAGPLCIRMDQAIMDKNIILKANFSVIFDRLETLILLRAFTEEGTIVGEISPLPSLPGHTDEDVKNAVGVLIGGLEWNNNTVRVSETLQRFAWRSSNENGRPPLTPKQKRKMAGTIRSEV
Chain of Serine/threonine-protein phosphatase PP1-alpha catalytic subunit (P62136 whole entry): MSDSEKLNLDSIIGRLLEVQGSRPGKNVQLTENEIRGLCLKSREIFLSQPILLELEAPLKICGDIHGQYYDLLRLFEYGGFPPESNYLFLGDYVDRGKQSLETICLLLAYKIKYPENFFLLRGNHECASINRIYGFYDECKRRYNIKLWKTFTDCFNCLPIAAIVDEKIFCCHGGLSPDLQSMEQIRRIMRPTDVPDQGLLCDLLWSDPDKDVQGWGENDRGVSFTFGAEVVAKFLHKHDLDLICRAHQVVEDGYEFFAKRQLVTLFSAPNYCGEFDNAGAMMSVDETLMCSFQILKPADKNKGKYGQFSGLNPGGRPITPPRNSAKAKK

COc1cnc(-c2ccccn2)nc1Sc1ccc(C)cc1
IC50 [1]: 6.95 µM (active)
IC50 [2]: > 67 µM (not active)
AC50 [3]: 5.03 µM (active)

Cc1c(OC(C)C(=O)NCc2ccncc2)ccc2c3c(c(=O)oc12)CCCC3 (stereo unspecified)
IC50 [4]: 15.5 µM (not active)
IC50 [5]: > 55.9 µM (not active)

O=C(O)c1ccc(N2C(=O)/C(=C/c3ccc(-c4ccc([N+](=O)[O-])cc4)o3)C=C2c2ccccc2)cc1
AC50 [6]: 56.7 µM (active)
IC50 [7]: > 50 µM (inactive)
IC50 [8]: 9.86 µM (active) and 3.93 µM (active)
IC50 [9]: 6.04 µM (active)
IC50 [10]: 21.4 µM (active)
IC50 [11]: 0.417 µM (active)
IC50 [12]: > 50 µM (active)
IC50 [13]: 33.8 µM (active)
IC50 [14]: < 0.5 µM (active)
EC50 [15]: > 380 µM (inactive)
IC50 [16]: 5.56 µM (active)
CC50 [17]: 15.8 µM (active)

Cc1ccc(N/N=C2/C(=O)Nn3c2nc(C)cc3=O)cc1
EC50 [18]: > 40 µM (inactive)
IC50 [10]: 86.1 µM (active)
EC50 [19]: > 100 µM (active)
IC50 [20]: > 40 µM (not active)
